For 21 compounds, IC50 results are on record in patent US20260297080A1, “BICYCLIC COMPOUNDS AS CDK INHIBITORS” (BeOne Medicines I GmbH, priority 2022, published 2026).

Structures are written as SMILES.

The target in one test is CDK1/Cyclin B1 (Homo sapiens, UniProt P06493). In words: CDK1/Cyclin B1 Biochemical Assay (TR-FRET), 0.015 mM ATP. Conditions: 0.15 μM Rb (Ser780)-biotin substrate, pH7.0, 60 min preincubation, 120 min reaction, room temperature. The method, then:
(§1) CDK2/Cyclin E1 and CDK1/Cyclin B1 Biochemical Assays
(§2) Compounds disclosed herein were tested for inhibition of CDK2/Cyclin E1 or CDK1/Cyclin B1 kinase in an assay based on the time-resolved fluorescence-resonance energy transfer (TR-FRET) methodology. The assay was carried out in 384-well low volume black plates in a reaction mixture containing CDK2/Cyclin E1 or CDK1/Cyclin B1, 0.060 mM ATP for CDK2/Cyclin E1 or 0.015 mM ATP for CDK1/Cyclin B1, 0.15 μM Rb (Ser780)-biotin substrate and 0-10 μM compound in buffer containing 50 mM HEPES pH7.0, 0.02% NaN3, 0.01% BSA, 0.1 mM Orthovanadate, 50 mM MgCl2, 1 mM DTT and 0.005% Tween-20. The kinase was incubated with compound for 60 minutes at room temperature and the reaction was initiated by the addition of ATP and Rb (Ser780)-biotin substrate. After reaction at room temperature for 120 minutes, an equal volume of stop/detection solution was added according to the manufacture's instruction (Cisbio Bioassays). The stop/detection solution contained Streptavidin-XL665 and Anti-pRb (Ser780) mAb-Eu Cryptate in Detection buffer (Cisbio Bioassays). Plates were incubated at room temperature for 60 minutes, and the TR-FRET signals (ex337 nm, em665 nm/620 nm) were recorded on a PHERAstar FSX plate reader (BMG Labtech). The inhibition percentage of CDK2/Cyclin E1 or CDK1/Cyclin B1 kinase activity in presence of increasing concentrations of compounds was calculated based on the ratio of fluorescence at 665 nm to that at 620 nm. The IC50 for each compound was derived from fitting the data to the four-parameter logistic equation by Dotmatics.

Another test addresses CDK2/Cyclin E1 (Homo sapiens, UniProt P24941). Description: CDK2/Cyclin E1 Biochemical Assay (TR-FRET), 0.060 mM ATP. Conditions: 0.15 μM Rb (Ser780)-biotin substrate, pH7.0, 60 min preincubation, 120 min reaction, room temperature. The method, then: as §1, §2

Chain of CDK1/Cyclin B1 (P06493 whole entry): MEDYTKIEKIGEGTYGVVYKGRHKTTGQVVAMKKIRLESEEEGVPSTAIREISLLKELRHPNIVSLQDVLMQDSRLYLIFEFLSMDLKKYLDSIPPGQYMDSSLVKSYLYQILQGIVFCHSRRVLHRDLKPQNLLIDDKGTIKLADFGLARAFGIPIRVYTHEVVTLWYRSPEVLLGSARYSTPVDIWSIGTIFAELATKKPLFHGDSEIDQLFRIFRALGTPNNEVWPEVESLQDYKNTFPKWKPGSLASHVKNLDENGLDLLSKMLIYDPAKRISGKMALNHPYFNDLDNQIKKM
Chain of CDK1/Cyclin B1 (P14635 whole entry partner): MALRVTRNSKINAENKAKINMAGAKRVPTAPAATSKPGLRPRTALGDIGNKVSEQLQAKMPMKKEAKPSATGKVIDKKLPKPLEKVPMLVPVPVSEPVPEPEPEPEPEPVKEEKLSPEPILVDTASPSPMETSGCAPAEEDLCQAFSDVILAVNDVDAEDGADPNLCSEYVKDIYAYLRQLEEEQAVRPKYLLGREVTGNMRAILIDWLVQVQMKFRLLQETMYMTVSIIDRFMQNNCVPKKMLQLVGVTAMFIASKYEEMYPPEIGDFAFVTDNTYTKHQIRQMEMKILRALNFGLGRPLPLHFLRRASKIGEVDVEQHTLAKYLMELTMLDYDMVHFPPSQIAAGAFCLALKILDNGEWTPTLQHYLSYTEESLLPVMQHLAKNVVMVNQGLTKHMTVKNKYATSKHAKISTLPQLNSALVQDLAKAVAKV

With `Cc1cc(Nc2cc([C@@H]3CC[C@H](OC(=O)NC(C)C)C3)[nH]n2)cc2c1S(=O)(=O)NC2` (relative stereo) [Example 26, cis-3-(3-((7-methyl-1,1-dioxido-2,3-dihydrobenzo[d]isothiazol-5-yl)amino)-1H-pyrazol-5-yl)cyclopentyl isopropylcarbamate], the IC50 came to 60 nM against CDK1/Cyclin B1 and 2 nM against CDK2/Cyclin E1.

For `CC(C)NC(=O)O[C@H]1CC[C@@H](c2cc(Nc3cc4c(cc3Cl)S(=O)(=O)NC4)n[nH]2)C1` (relative stereo) [Example 27, cis-3-(3-((6-chloro-1,1-dioxido-2,3-dihydrobenzo[d]isothiazol-5-yl)amino)-1H-pyrazol-5-yl)cyclopentyl isopropylcarbamate], the 50% inhibitory concentration (IC50) was 958 nM against CDK1/Cyclin B1 and 33 nM at CDK2/Cyclin E1.

Turning to `CC(C)NC(=O)O[C@H]1CC[C@@H](c2cc(Nc3cc4c(cc3OC(F)(F)F)S(=O)(=O)NC4)n[nH]2)C1` (relative stereo) [Example 28, cis-3-(3-((1,1-dioxido-6-(trifluoromethoxy)-2,3-dihydrobenzo[d]isothiazol-5-yl)amino)-1H-pyrazol-5-yl)cyclopentyl isopropylcarbamate], the IC50 is more than 10000 nM against CDK1/Cyclin B1 and 1260 nM at CDK2/Cyclin E1.

Regarding `CC(C)NC(=O)O[C@H]1CC[C@@H](c2cc(Nc3cc(F)c4c(c3)CNS4(=O)=O)n[nH]2)C1` (relative stereo) [Example 29, cis-3-(3-((7-fluoro-1,1-dioxido-2,3-dihydrobenzo[d]isothiazol-5-yl)amino)-1H-pyrazol-5-yl)cyclopentyl isopropylcarbamate], the values for the IC50 at CDK1/Cyclin B1 and against CDK2/Cyclin E1 were 113 nM and 2.2 nM, respectively.

Regarding `CC(C)NC(=O)O[C@H]1CC[C@@H](c2cc(Nc3c(F)cc4c(c3F)CNS4(=O)=O)n[nH]2)C1` (relative stereo) [Example 30, cis-3-(3-((4,6-difluoro-1,1-dioxido-2,3-dihydrobenzo[d]isothiazol-5-yl)amino)-1H-pyrazol-5-yl)cyclopentyl isopropylcarbamate], the concentration for half-maximal inhibition (IC50) against CDK1/Cyclin B1 was 544 nM; against CDK2/Cyclin E1, 7.2 nM.

With `CC(C)NC(=O)O[C@H]1CC[C@@H](c2cc(Nc3cnc4c(c3)CNS4(=O)=O)n[nH]2)C1` (relative stereo) [Example 31, cis-3-(3-((1,1-dioxido-2,3-dihydroisothiazolo[5,4-b]pyridin-5-yl)amino)-1H-pyrazol-5-yl)cyclopentyl isopropylcarbamate], the IC50 against CDK1/Cyclin B1 stood at 166 nM; on CDK2/Cyclin E1, 7 nM.

Turning to `CC(C)NC(=O)O[C@H]1CC[C@@H](c2cc(Nc3cnc4c(c3)CN(C)S4(=O)=O)n[nH]2)C1` (relative stereo) [Example 32, cis-3-(3-((2-methyl-1,1-dioxido-2,3-dihydroisothiazolo[5,4-b]pyridin-5-yl)amino)-1H-pyrazol-5-yl)cyclopentyl isopropylcarbamate], the IC50 against CDK1/Cyclin B1 worked out at 424 nM; against CDK2/Cyclin E1, 21 nM.

Turning to `CC(C)NC(=O)O[C@H]1CC[C@@H](c2cc(Nc3ccc4c(n3)CNS4(=O)=O)n[nH]2)C1` (relative stereo) [Example 33, cis-3-(3-((1,1-dioxido-2,3-dihydroisothiazolo[4,5-b]pyridin-5-yl)amino)-1H-pyrazol-5-yl)cyclopentyl isopropylcarbamate], the IC50 worked out at 38 nM against CDK1/Cyclin B1 and 1.8 nM against CDK2/Cyclin E1.

As to `Cc1c(Nc2cc([C@@H]3CC[C@H](OC(=O)NC(C)C)C3)[nH]n2)ccc2c1CNS2(=O)=O` (relative stereo) [Example 34, cis-3-(3-((4-methyl-1,1-dioxido-2,3-dihydrobenzo[d]isothiazol-5-yl)amino)-1H-pyrazol-5-yl)cyclopentyl isopropylcarbamate], the IC50 on CDK1/Cyclin B1 came to 81 nM; against CDK2/Cyclin E1 it was 1.9 nM.

`Cc1c(Nc2cc([C@@H]3CC[C@H](OC(=O)NC(C)C)C3)[nH]n2)ccc2c1CN(C)S2(=O)=O` (relative stereo) [Example 35, cis-3-(3-((2,4-dimethyl-1,1-dioxido-2,3-dihydrobenzo[d]isothiazol-5-yl)amino)-1H-pyrazol-5-yl)cyclopentyl isopropylcarbamate]: the figures for the IC50 against CDK1/Cyclin B1 and on CDK2/Cyclin E1 were 296 nM and 8.9 nM, respectively.

For `COCCN1Cc2c(ccc(Nc3cc([C@@H]4CC[C@H](OC(=O)NC(C)C)C4)[nH]n3)c2C)S1(=O)=O` (relative stereo) [Example 36, cis-3-(3-((2-(2-methoxyethyl)-4-methyl-1,1-dioxido-2,3-dihydrobenzo[d]isothiazol-5-yl)amino)-1H-pyrazol-5-yl)cyclopentyl isopropylcarbamate], the IC50 on CDK1/Cyclin B1 amounted to 329 nM; at CDK2/Cyclin E1, 18 nM.

As for `Cc1c(Nc2cc([C@@H]3CC[C@H](OC(=O)NC(C)C)C3)[nH]n2)ccc2c1CN(CCO)S2(=O)=O` (relative stereo) [Example 37, cis-3-(3-((2-(2-hydroxyethyl)-4-methyl-1,1-dioxido-2,3-dihydrobenzo[d]isothiazol-5-yl)amino)-1H-pyrazol-5-yl)cyclopentyl isopropylcarbamate], the IC50 on CDK1/Cyclin B1 was determined as 313 nM; on CDK2/Cyclin E1, 7.2 nM.

`CC[C@H](C)NC(=O)O[C@H]1CC[C@@H](c2cc(Nc3ccc4c(c3Cl)CNS4(=O)=O)n[nH]2)C1` (relative stereo) [Example 41, cis-3-(3-((4-chloro-1,1-dioxido-2,3-dihydrobenzo[d]isothiazol-5-yl)amino)-1H-pyrazol-5-yl)cyclopentyl((S)-sec-butyl)carbamate]: the IC50 turned out to be 512 nM against CDK1/Cyclin B1 and 2.3 nM against CDK2/Cyclin E1.

For `CC[C@H](C)NC(=O)O[C@H]1CC[C@@H](c2cc(Nc3cc4c(cc3F)S(=O)(=O)NC4)n[nH]2)C1` (relative stereo) [Example 43, cis-3-(3-((6-fluoro-1,1-dioxido-2,3-dihydrobenzo[d]isothiazol-5-yl)amino)-1H-pyrazol-5-yl)cyclopentyl((S)-sec-butyl)carbamate], the IC50 was 130 nM against CDK1/Cyclin B1 and 1.1 nM at CDK2/Cyclin E1.

Take `CC(C)NC(=O)O[C@H]1CC[C@@H](c2cc(Nc3cc4c(cc3F)S(=O)(=O)N(C)C4)n[nH]2)C1` (relative stereo) [Example 45, cis-3-(3-((6-fluoro-2-methyl-1,1-dioxido-2,3-dihydrobenzo[d]isothiazol-5-yl)amino)-1H-pyrazol-5-yl)cyclopentyl isopropylcarbamate]: the IC50 against CDK1/Cyclin B1 was determined as 6010 nM; at CDK2/Cyclin E1, 181 nM.

For the compound `[2H]C([2H])([2H])N1Cc2cc(Nc3cc([C@@H]4CC[C@H](OC(=O)NC(C)C)C4)[nH]n3)c(F)cc2S1(=O)=O` (relative stereo) [Example 46, cis-3-(3-((6-fluoro-2-(methyl-d3)-1,1-dioxido-2,3-dihydrobenzo[d]isothiazol-5-yl)amino)-1H-pyrazol-5-yl)cyclopentyl isopropylcarbamate], the 50% inhibitory concentration (IC50) was 4420 nM on CDK1/Cyclin B1 and 230 nM against CDK2/Cyclin E1.

As to `CC(C)NC(=O)O[C@H]1CC[C@@H](c2cc(Nc3cc4c(cc3F)S(=O)(=O)N(CCO)C4)n[nH]2)C1` (relative stereo) [Example 47, cis-3-(3-((6-fluoro-2-(2-hydroxyethyl)-1,1-dioxido-2,3-dihydrobenzo[d]isothiazol-5-yl)amino)-1H-pyrazol-5-yl)cyclopentyl isopropylcarbamate], the IC50 stood at 7380 nM against CDK1/Cyclin B1 and 158 nM at CDK2/Cyclin E1.

In the case of `COCCN1Cc2cc(Nc3cc([C@@H]4CC[C@H](OC(=O)NC(C)C)C4)[nH]n3)c(F)cc2S1(=O)=O` (relative stereo) [Example 48, cis-3-(3-((6-fluoro-2-(2-methoxyethyl)-1,1-dioxido-2,3-dihydrobenzo[d]isothiazol-5-yl)amino-1H-pyrazol-5-yl)cyclopentyl isopropylcarbamate], the IC50 at CDK1/Cyclin B1 is more than 10000 nM; against CDK2/Cyclin E1 it was 243 nM.

Regarding `CC(C)NC(=O)O[C@H]1CC[C@@H](c2cc(Nc3cc4c(cc3F)S(=O)(=O)N(C(C)C)C4)n[nH]2)C1` (relative stereo) [Example 49, cis-3-(3-((6-fluoro-2-isopropyl-1,1-dioxido-2,3-dihydrobenzo[d]isothiazol-5-yl)amino)-1H-pyrazol-5-yl)cyclopentyl isopropylcarbamate], the IC50 against CDK1/Cyclin B1 was more than 10000 nM; on CDK2/Cyclin E1, 758 nM.

Turning to `CC(C)NC(=O)O[C@H]1CC[C@@H](c2cc(Nc3ccc4c(c3F)C(C)(C)NS4(=O)=O)n[nH]2)C1` (relative stereo) [Example 55, cis-3-(3-((4-fluoro-3,3-dimethyl-1,1-dioxido-2,3-dihydrobenzo[d]isothiazol-5-yl)amino)-1H-pyrazol-5-yl)cyclopentyl isopropylcarbamate], the results for the IC50 against CDK1/Cyclin B1 and at CDK2/Cyclin E1 were 1890 nM and 71 nM, respectively.

In the case of `CC1(NC(=O)O[C@H]2CC[C@@H](c3cc(Nc4ccc5c(c4F)C(C)(C)NS5(=O)=O)n[nH]3)C2)CC1` (relative stereo) [Example 56, cis-3-(3-((4-fluoro-3,3-dimethyl-1,1-dioxido-2,3-dihydrobenzo[d]isothiazol-5-yl)amino)-1H-pyrazol-5-yl)cyclopentyl(1-methylcyclopropyl)carbamate], the IC50 against CDK1/Cyclin B1 stood at 472 nM; against CDK2/Cyclin E1, 25 nM.
